# Assay results reported in patent publication US20220175693A1, “DIETARY SUPPLEMENT COMPRISING LUTEIN FOR TELOMERE PROTECTION, AND METHOD FOR PRODUCTION THEREOF” (BIOGEN EXTRACTS PRIVATE LIMITED, priority 2019, published 2022).
# System: human adult primary fibroblast cells
# Assay: Cell count and viability of samples after thawing (Tripan-Blue exclusion)
# Format: cell-based
# Procedure: Sample Preparation and HT Q-FISH: On processing day, the samples and control cell lines frozen in liquid nitrogen are thawed at 37° C. and cell counts and cellular viability are determined. Aliquots with viability lower than 60% are considered below our QC standards and are not further analyzed. Cells are seeded in clear bottom black-walled 384-well plates at 15,000 cells per well in 5 replicates for each sample and 8 replicates for each control cell line. Cell count: An automated cell counter is used to determine the total number of cells in the vials. A minimum of 100.000 cells are needed to perform TAT. Cell viability by Tripan-Blue exclusion method. The exclusion criteria currently in place will reject aliquots with less than 60% viable cells.
structure (smiles),measurement,setting,value
CC1=C[C@H](O)CC(C)(C)[C@H]1/C=C/C(C)=C/C=C/C(C)=C/C=C/C=C(C)/C=C/C=C(C)/C=C/C1=C(C)C[C@@H](O)CC1(C)C [Lutein],Viability of sample after thawing,"Lutein 1 μg/ml + 10 μM H2O2, week 4 (P4)",87%
same,Viability of sample after thawing,"Lutein 1 μg/ml + 10 μM H2O2, week 8 (P8)",87%
same,Viability of sample after thawing,"Lutein 1 μg/ml, standard culture, week 4 (P4)",80%
same,Viability of sample after thawing,"Lutein 1 μg/ml, standard culture, week 8 (P8)",91%
same,Viability of sample after thawing,"Lutein 5 μg/ml + 10 μM H2O2, week 4 (P4)",81%
same,Viability of sample after thawing,"Lutein 5 μg/ml + 10 μM H2O2, week 8 (P8)",76%
same,Viability of sample after thawing,"Lutein 5 μg/ml, standard culture, week 4 (P4)",96%
same,Viability of sample after thawing,"Lutein 5 μg/ml, standard culture, week 8 (P8)",91%
same,Viability of sample after thawing,"Lutein 10 μg/ml + 10 μM H2O2, week 4 (P4)",96%
same,Viability of sample after thawing,"Lutein 10 μg/ml + 10 μM H2O2, week 8 (P8)",92%
same,Viability of sample after thawing,"Lutein 10 μg/ml, standard culture, week 4 (P4)",96%
same,Viability of sample after thawing,"Lutein 10 μg/ml, standard culture, week 8 (P8)",87%
